Reference: patent publication US20230167088A1, “1-PYRAZINYLPYRAZOLYL-3-OXYALKYL ACIDS AND THEIR DERIVATIVES, AND THEIR USE FOR CONTROL OF UNDESIRED PLANT GROWTH” (BAYER AKTIENGESELLSCHAFT, priority 2020, published 2023)

How the values were obtained:
[1] = test system: harmful plants; assay: Herbicidal pre-emergence action 2a, summary across species; type: in vivo; conditions: Tables B1 to B15 (320 g/ha and/or 80 g/ha)
Description: a) Seeds of monocotyledonous and dicotyledonous weed plants and crop plants are placed in plastic or organic plant pots and covered with soil. The compounds of the invention, formulated in the form of wettable powders (WP) or as emulsion concentrates (EC), are then applied onto the surface of the covering soil as aqueous suspension or emulsion with addition of 0.5% additive at a water application rate of 600 1/ha (converted). After the treatment, the pots are placed in a greenhouse and kept under good growth conditions for the trial plants. After about 3 weeks, the effect of the preparations is scored visually in comparison with untreated controls as percentages. For example, 100% activity=the plants have died, 0% activity=like control plants.
Tables B1 to B15 below show the effects of selected compounds of the general formula (I) according to Tables 1 and 2 on various harmful plants and an application rate corresponding to 320 g/ha and/or 80 g/ha, which were obtained by the experimental procedure mentioned above.
For example, compound nos. I-07, I-08, I-11, I-12, I-13, I-16, I-17, I-20, I-36, I-37, I-39, I-45, I-46, I-48, I-52 and I-53 in the pre-emergence method have very good action (80% to 100% herbicidal activity) against harmful plants such as Alopecurus myosuroides, Amaranthus retroflexus, Digitaria sanguinalis, Lolium rigidum, Polygonum convolvulus, Setaria viridis, Veronica persica and Viola tricolor at an application rate of 0.32 kg of active substance per hectare.

[2] = test system: AMARE; assay: Herbicidal pre-emergence action 2b (doubly sown, 1280 g/ha); type: in vivo, Amaranthus retroflexus; conditions: doubly sown pots, dosage 1280 g/ha, visual scoring after about 3 weeks
Method in brief: (§1)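 Sandy loam pots, one mono- or dicot species each, double sowing; seeds covered. Aqueous WP/EC spray + 0.5% additive, 600 L/ha, onto cover soil. GH, ~3 wk, visual % vs control.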

[3] = test system: PHBPU; assay: Herbicidal post-emergence action 1a (greenhouse pots, visual rating); type: in vivo, Pharbitis purpurea; conditions: visual rating about 3 weeks after treatment
Method in brief: (§2)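 Visual scoring versus untreated plants (100% = plants dead, 0% = as control) followed roughly 3 weeks in the greenhouse after treatment. Plants grown in sandy loam pots had been sprayed on green parts at the one-leaf stage, 2–3 weeks post-sowing, with aqueous WP/EC preparations containing 0.5% additive, 600 l/ha, at 320 and/or 80 g/ha.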

[4] = test system: ALOMY; assay: Herbicidal pre-emergence action 2a (greenhouse pots, visual scoring); type: in vivo, Alopecurus myosuroides; conditions: dosage 320 g/ha, visual scoring after about 3 weeks
Method in brief: (§3)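 The soil covering sown seeds is treated with an aqueous suspension or emulsion of wettable powder or emulsion concentrate (0.5% additive, 600 l/ha), corresponding to 320 g/ha and/or 80 g/ha. After about 3 weeks of greenhouse growth, damage is scored visually as a percentage.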

[5] = test system: DIGSA; assay: Herbicidal post-emergence action 1a (greenhouse pots, visual rating); type: in vivo, Digitaria sanguinalis; conditions: rated visually about 3 weeks after treatment, 100% = plants have died, 0% = like control plants
Method in brief: as §2

[6] = test system: STEME; assay: Herbicidal post-emergence action 1b (twin sowing, 1280 g/ha); type: in vivo, Stellaria media; conditions: dosage 1280 g/ha, visual rating about 3 weeks after treatment
Method in brief: (§4)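 Compounds, formulated as wettable powders or emulsion concentrates, were applied to foliage of greenhouse-grown weeds at the one-leaf stage with 0.5% additive in 600 L/ha water. Pots held one monocot and one dicot species in sandy loam. Efficacy was scored visually after about 3 weeks versus controls.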

[7] = test system: STEME; assay: Herbicidal pre-emergence action 2b (doubly sown, 1280 g/ha); type: in vivo, Stellaria media; conditions: doubly sown pots, dosage 1280 g/ha, visual scoring after about 3 weeks
Method in brief: as §1

[8] = test system: ALOMY; assay: Herbicidal post-emergence action 1a (greenhouse pots, visual rating); type: in vivo, Alopecurus myosuroides; conditions: rated visually about 3 weeks after treatment, 100% = plants have died, 0% = like control plants
Method in brief: as §2

[9] = test system: POLCO; assay: Herbicidal pre-emergence action 2a (greenhouse pots, visual scoring); type: in vivo, Polygonum convolvulus; conditions: dosage 320 g/ha, visual scoring after about 3 weeks vs untreated controls
Method in brief: as §3

[10] = test system: DIGSA; assay: Herbicidal post-emergence action 1b (twin sowing, 1280 g/ha); type: in vivo, Digitaria sanguinalis; conditions: dosage 1280 g/ha, visual rating about 3 weeks after treatment
Method in brief: as §4

Row | SMILES | herbicidal efficacy against harmful plants in the case of pre-emergence treatment (in words) [1] | Pre-emergence action at 1280 g/ha against AMARE in % [2] [%] | Post-emergence action against PHBPU in % ([3]; dosage 320 g/ha) [%] | Pre-emergence action against ALOMY in % [4] [%] | Post-emergence action against DIGSA in % ([5]; Dosage 320 g/ha) [%] | Post-emergence action at 1280 g/ha against STEME in % [6] [%] | Pre-emergence action at 1280 g/ha against STEME in % [7] [%] | Post-emergence action against ALOMY in % ([8]; Dosage 80 g/ha) [%] | Post-emergence action against ALOMY in % ([8]; Dosage 320 g/ha) [%] | Pre-emergence action against POLCO in % [9] [%] | Post-emergence action against PHBPU in % ([3]; dosage 80 g/ha) [%] | Post-emergence action at 1280 g/ha against DIGSA in % [10] [%] | Post-emergence action against DIGSA in % ([5]; Dosage 80 g/ha) [%]
1 | COC(=O)C(C)Oc1nn(-c2cnccn2)c(-c2ccc(F)c(F)c2)c1Br (racemic) [Example I-16] | good herbicidal efficacy | 100 | 90 | 90 | 90 | 100 | 100 | 90 | 100 | 90 |  |  | 
2 | COC(=O)C(C)Oc1nn(-c2cnccn2)c(-c2ccc(F)c(F)c2)c1C#N (racemic) [Example I-22] | good herbicidal efficacy | 100 | 90 | 100 | 80 | 100 | 100 | 90 | 100 | 80 | 80 |  | 
3 | COC(=O)COc1nn(-c2cnccn2)c(-c2ccc(F)nc2)c1Br [Example I-11] | good herbicidal efficacy | 100 | 80 | 100 |  | 90 | 100 |  | 100 | 90 | 80 | 100 | 
4 | COC(=O)COc1nn(-c2cnccn2)c(-c2ccc(F)c(F)c2)c1Br [Example I-15] | good herbicidal efficacy |  | 90 | 90 | 90 |  |  | 80 | 80 |  | 90 |  | 
5 | COC(=O)[C@@H](C)Oc1nn(-c2cnccn2)c(-c2cccc(F)c2)c1Br [Example I-20] | good herbicidal efficacy | 100 | 90 | 90 | 90 | 100 | 100 | 80 | 90 | 80 |  |  | 80
6 | COC(=O)[C@@H](C)Oc1nn(-c2cnccn2)c(-c2ccnc(F)c2)c1Br [Example I-34] | good herbicidal efficacy | 100 | 80 | 100 | 80 | 100 | 100 | 80 | 100 | 100 |  | 100 | 
